pEC50: −log10 of the molar value. Where a name gives a salt, the structure may show the parent alone.
Target: T1, human mGluR4 transiently over-expressed in HEK-293 cells (Homo sapiens, UniProt Q14833)
T1 construct: expressed in transfected cells; host or cells: HEK-293 cells, transient co-transfection by electroporation
Assay: Human mGluR4 positive allosteric modulator evaluation using Ca++ functional assay
Assay type: cell-based
Details: HEK-293 cells co-transfected with hmGluR4 and chimeric G protein; EC10 glutamate; intracellular calcium (Fluo4AM); read-out: mean EC50 of agonist/positive allosteric modulator activity on mGluR4
Procedure: Human mGluR4 Positive Allosteric Modulator Evaluation Using Ca^++ Functional Assay
Compounds of the present invention were tested successively for their agonist and positive allosteric modulator activities on human mGluR4 transiently over-expressed in HEK-293 cells. They exert agonist activity if, by themselves in absence of the endogenous glutamate, they are able to activate mGluR4; and they exert positive allosteric modulator activity if they increase the action of the endogenous glutamate.
Cell Culture and Transfection
HEK-293 cells were maintained in Modified Eagle's Medium supplemented with 10% Foetal Calf Serum, 1% Penicillin/Streptomycin and 1% non essential amino acids at 37° C./5% CO2.
Cells were co-transfected by electroporation with two DNA plasmids encoding hmGluR4 and a chimeric G protein allowing redirection of the activation signal to intracellular calcium pathway. Cells were plated after transfection onto polyornithine coated, clear bottom, black-walled, 96-well plates and cultured for 24 h.
Calcium Assay EC50 Determination
Receptor activity was detected by changes in intracellular calcium measured using the fluorescent Ca^2+ sensitive dye, Fluo4AM (Molecular Probes).
The day of the assay, medium was aspirated and replaced during 3 hours by medium without serum supplemented with 1% Glutamax, 1% Penicillin/Streptomycin and 1% non essential amino acids. Then, cells were washed with freshly prepared buffer B (HBSS 1×(PAA), Hepes 20 mM, MgSO4-7H2O 1 mM, Na2CO3 3.3 mM, CaCl2-2H2O 1.3 mM, 0.5% BSA, Probenecid 2.5 mM) and loaded at 37° C. in 5% CO2 for 1.5 hours with buffer B containing 1 μM Fluo4AM 0.1 mg/mL Pluronic Acid, 7 μg/mL Glutamate Pyruvate Transaminase and 2 mM sodium pyruvate. Afterwards cells were washed twice with buffer B and 50 μL of this buffer were added to each well. Addition of compounds and intracellular Ca^2+ measurements (excitation 485 nm, emission 525 nm) were performed by the fluorescence microplate reader FlexStation (Molecular Devices).
Agonist and positive allosteric modulator activities of compounds were consecutively evaluated on the same cells plate. Agonist activity was first tested during 60 s with the addition of compound alone on the cells. Then, the cells were stimulated by an EC10 glutamate concentration and fluorescence recorded for additional 60 s. EC10 glutamate concentration is the concentration giving 10% of the maximal glutamate response. Agonist and/or positive allosteric modulator activity(ies) were evaluated in comparison to basal signal evoked by EC10 glutamate alone.
For EC50 determination, a dose-response test was performed using 6 to 9 concentrations of each compound of the invention. Dose-response curves were fitted using the sigmoidal dose-response (variable slope) analysis in GraphPad Prism program (Graph Pad Inc) and EC50 of agonist/positive allosteric modulator activity was calculated. Dose-response experiments were all performed in duplicate, two times independently.

T1 sequence (Q14833 33-912): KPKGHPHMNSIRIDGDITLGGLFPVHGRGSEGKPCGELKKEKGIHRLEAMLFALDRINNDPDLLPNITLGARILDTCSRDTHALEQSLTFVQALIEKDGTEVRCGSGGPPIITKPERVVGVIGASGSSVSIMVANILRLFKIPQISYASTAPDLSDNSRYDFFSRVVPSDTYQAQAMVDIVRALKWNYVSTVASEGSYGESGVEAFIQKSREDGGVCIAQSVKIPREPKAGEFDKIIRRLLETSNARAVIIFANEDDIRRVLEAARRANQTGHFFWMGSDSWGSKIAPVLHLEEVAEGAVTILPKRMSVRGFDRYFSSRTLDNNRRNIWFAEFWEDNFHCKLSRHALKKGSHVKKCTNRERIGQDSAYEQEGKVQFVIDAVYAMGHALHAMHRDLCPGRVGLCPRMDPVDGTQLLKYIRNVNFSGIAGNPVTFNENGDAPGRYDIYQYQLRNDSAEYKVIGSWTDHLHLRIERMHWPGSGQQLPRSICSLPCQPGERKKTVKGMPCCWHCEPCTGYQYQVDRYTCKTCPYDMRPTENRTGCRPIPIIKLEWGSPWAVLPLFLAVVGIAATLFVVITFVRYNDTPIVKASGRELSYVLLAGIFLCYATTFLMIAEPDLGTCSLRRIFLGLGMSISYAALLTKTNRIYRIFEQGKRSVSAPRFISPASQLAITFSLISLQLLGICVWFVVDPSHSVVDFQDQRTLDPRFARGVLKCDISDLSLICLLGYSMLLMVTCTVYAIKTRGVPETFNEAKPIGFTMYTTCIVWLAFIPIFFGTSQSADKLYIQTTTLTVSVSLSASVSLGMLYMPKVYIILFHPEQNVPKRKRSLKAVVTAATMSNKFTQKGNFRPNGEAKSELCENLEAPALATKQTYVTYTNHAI

Row | Structure (SMILES) | pEC50
1 | ON=c1cc(-c2cc3ccccc3cn2)oc2ccccc12 (mixture of isomers) [Example 1, 2-isoquinolin-3-yl-chromen-4-one oxime] | > 6.00
2 | ON=c1cc(-c2cc3ccccc3cn2)oc2ccc(C3CC3)cc12 (mixture of isomers) [Example 34, 6-cyclopropyl-2-isoquinolin-3-yl-chromen-4-one oxime] | > 5.30
3 | CNc1cccc(C#Cc2ccc3c(=NO)cc(-c4cc5ccccc5cn4)oc3c2)c1 (mixture of isomers) [Example 51, 2-Isoquinolin-3-yl-7-{3-methylaminophenylethynyl}-chromen-4-one oxime] | > 6.00
4 | ON=c1cc(-c2cc3cccn3cn2)oc2ccc(Br)cc12 (mixture of isomers) [Example 66, 6-bromo-2-Pyrrolo[1,2-c]pyrimidin-3-yl-chromen-4-one oxime] | > 5.30
5 | ON=c1cc(-c2cc3nccn3cn2)oc2ccccc12 (mixture of isomers) [Example 73, 2-Imidazo[1,2-c]pyrimidin-7-yl-chromen-4-one oxime] | > 6.00
6 | ON=c1cc(-c2cc3cnccc3cn2)oc2ccccc12 [Example 61, 2-[2,6]Naphthyridin-3-yl-chromen-4-one oxime] | > 6.00
7 | COCCOc1ccc2oc(-c3cc4cccn4cn3)cc(=NO)c2c1 [Example 67, 6-methoxyethoxy-2-Pyrrolo[1,2-c]pyrimidin-3-yl-chromen-4-one oxime] | > 6.00
8 | Cc1c(-c2cc3ccccc3cn2)oc2ccccc2c1=NO [Example 71, 2-Isoquinolin-3-yl-3-methyl-chromen-4-one oxime] | > 5.30
9 | ON=c1cc(-c2cc3ccn(O)c3cn2)oc2ccccc12 [Example 76, 2-(1-Hydroxy-7H-pyrrolo[2,3-c]pyridin-5-yl)-chromen-4-one oxime] | > 5.30
10 | COn1ccc2cc(-c3cc(=NO)c4ccccc4o3)ncc21 [Example 78, 2-(1-Methoxy-1H-pyrrolo[2,3-c]pyridin-5-yl)-chromen-4-one oxime] | > 5.30
11 | ON=c1cc(-c2cc3cccn3cn2)oc2ccc(O)cc12 [Example 81, 6-Hydroxy-2-pyrrolo[1,2-c]pyrimidin-3-yl-chromen-4-one oxime] | > 6.00
12 | CC1CCCN1CCOc1ccc2oc(-c3cc4cccn4cn3)cc(=NO)c2c1 (centres unmarked) [Example 92, 6-[2-(2-methyl-pyrrolidin-1-yl)-ethoxy]-2-pyrrolo[1,2-c]pyrimidin-3-yl-chromen-4-one oxime, hydrochloride] | > 5.30
13 | ON=c1cc(-c2cc3cccn3cn2)oc2ccc(OCCN3CCC(F)(F)CC3)cc12 [Example 103, hydrochloride] | > 6.00
14 | ON=c1cc(-c2cc3cccn3cn2)oc2ccc(OCCn3ccnc3)cc12 [Example 105, 6-(2-imidazol-1-O-ethoxy)-2-pyrrolo[1,2-c]pyrimidin-3-yl-chromen-4-one oxime] | > 6.00
15 | ON=c1cc(-c2cc3cccn3cn2)oc2ccc(CCCN3CCOCC3)cc12 [Example 106, 6-(3-morpholin-4-yl-propyl)-2-pyrrolo[1,2-c]pyrimidin-3-yl-chromen-4-one oxime, hydrochloride] | > 6.00
16 | ON=c1cc(-c2cc3cccn3cn2)oc2ccc(/C=C\CN3CCOCC3)cc12 [Example 107] | > 6.00

Row | Structure (SMILES) | pEC50
17 | ON=c1cc(-c2cc3cccn3cn2)oc2ccc(OCCc3ccc(F)cc3)cc12 [Example 109, 6-[2-(4-fluoro-phenyl)-ethoxy]-2-pyrrolo[1,2-c]pyrimidin-3-yl-chromen-4-one oxime, hydrochloride] | > 6.00
18 | ON=c1cc(-c2cc3cccn3cn2)oc2ccc(OCCN3C[C@@H]4C[C@H]3CO4)cc12 [Example 111, 6-[(1S,4S)-2-(2-oxa-5-aza-bicyclo[2.2.1]hept-5-yl)-ethoxy]-2-pyrrolo[1,2-c]pyrimidin-3-yl-chromen-4-one oxime, hydrochloride] | > 6.00
19 | C[C@@H]1CN(CCOc2ccc3oc(-c4cc5cccn5cn4)cc(=NO)c3c2)C[C@H](C)O1 [Example 112, 6-[2-(cis-2,6-dimethyl-morpholin-4-yl)-ethoxy]-2-pyrrolo[1,2-c]pyrimidin-3-yl-chromen-4-one oxime, hydrochloride] | > 6.00
20 | ON=c1cc(-c2cc3cccn3cn2)oc2ccc(OCCN3CCC(C(F)(F)F)CC3)cc12 [Example 113, 2-pyrrolo[1,2-c]pyrimidin-3-yl-6-[2-(4-trifluoromethyl-piperidin-1-yl)-ethoxy]chromen-4-one oxime, hydrochloride] | > 6.00
21 | CCN1CCN(CCOc2ccc3oc(-c4cc5cccn5cn4)cc(=NO)c3c2)CC1.Cl.Cl [Example 121, 6-[2-(4-ethyl-piperazin-1-yl-ethoxy]-2-pyrrolo[1,2-c]pyrimidin-3-yl-chromen-4-one oxime, dihydrochloride] | > 5.30
22 | ON=c1cc(-c2cc3sccc3cn2)oc2ccc(OCCc3ccc(F)cc3)cc12 [Example 130, 6-[2-(4-Fluoro-phenyl)-ethoxy]-2-thieno[3,2-c]pyridin-6-yl-chromen-4-one oxime] | > 6.00
23 | ON=c1cc(-c2cc3cccn3cn2)oc2cc(OCCN3CCOCC3)ccc12 [Example 142, 7-(2-Morpholin-4-yl-ethoxy)-2-pyrrolo[1,2-c]pyrimidin-3-yl-chromen-4-one oxime, hydrochloride] | > 6.00
24 | ON=c1cc(-c2cc3cccn3cn2)oc2cc(OCCCN3CCOCC3)ccc12 [Example 143, 7-(3-Morpholin-4-yl-propoxy)-2-pyrrolo[1,2-c]pyrimidin-3-yl-chromen-4-one oxime hydrochloride] | > 6.00
25 | O=C(COc1ccc2oc(-c3cc4cccn4cn3)cc(=NO)c2c1)Nc1ccc(F)cc1 [Example 150, N-(4-Fluoro-phenyl)-2-{4-hydroxyimino-2-pyrrolo[1,2-c]pyrimidin-3-yl-4H-chromen-6-yloxy}-acetamide] | > 6.00
26 | O=C(COc1ccc2oc(-c3cc4cccn4cn3)cc(=NO)c2c1)Nc1ccc(F)cn1 [Example 152, N-(5-Fluoro-pyridin-2-yl)-2-{4-hydroxyimino-2-pyrrolo[1,2-c]pyrimidin-3-yl-4H-chromen-6-yloxy}-acetamide] | > 6.00
27 | ON=c1cc(-c2cc3cccn3cn2)oc2cccc(OCCCN3CCOCC3)c12 [Example 157, 5-(3-Morpholin-4-yl-propoxy)-2-pyrrolo[1,2-c]pyrimidin-3-yl-chromen-4-one oxime, hydrochloride] | > 5.30
28 | ON=c1cc(-c2cc3cccn3cn2)oc2ccc(OCCCOc3ccc(F)cc3)cc12 [Example 161, 6-[3-(4-Fluoro-phenoxy)-propoxy]-2-pyrrolo[1,2-c]pyrimidin-3-yl-chromen-4-one oxime] | > 6.00
29 | ON=c1cc(-c2cc3cccn3cn2)oc2ccc(OCCCOc3ccccc3)cc12 [Example 162, 6-(3-Phenoxy-propoxy)-2-pyrrolo[1,2-c]pyrimidin-3-yl-chromen-4-one oxime] | > 6.00
30 | ON=c1cc(-c2cc3cccn3cn2)oc2ccc(OCCCOc3cccc(F)c3)cc12 [Example 163, 6-[3-(3-Fluoro-phenoxy)-propoxy]-2-pyrrolo[1,2-c]pyrimidin-3-yl-chromen-4-one oxime] | > 6.00
31 | ON=c1cc(-c2cc3cccn3cn2)oc2ccc(OCCCOc3ccc(F)c(F)c3)cc12 [Example 164, 6-[3-(3,4-Difluoro-phenoxy)-propoxy]-2-pyrrolo[1,2-c]pyrimidin-3-yl-chromen-4-one oxime] | > 6.00

Test system: not given
Assay: not given
Details: not given

Row | Structure (SMILES) | melting point
32 | ON=c1cc(-c2cc3ccccc3cn2)oc2ccccc12 (mixture of isomers) [Example 1, 2-isoquinolin-3-yl-chromen-4-one oxime] | 247 to 249 °C

— patent publication US8962627B2, “Oxime derivatives and their use as allosteric modulators of metabotropic glutamate receptors” (Prestwick Chemical, Inc., priority 2009, dated 2015)
